In patent EP0944595B1, “5-CYCLO INDOLE COMPOUNDS AS 5-HT1D RECEPTOR LIGANDS” (NPS Allelix Corp., priority 1996, dated 1998):

Tested on: protein extravasation
Assay: Inhibition of protein extravasation, trigeminal stimulation assay
Type: in vivo, Guinea pigs
Settings: guinea pig dura mater, [125I]-BSA extravasation after stimulation of the right trigeminal ganglion
Description: Compounds of the inventions were evaluated for their ability to block neurogenic inflammation via inhibition of protein extravasation using the trigeminal stimulation assay as described in Markowitz, et al. J, Neurosci. 1987, 7:4129 and Lee, et al. Brain Res, 1993, 626:303. This is believed to indicate a compound's ability to act as an agonist at the 5-HT1Da and/or 5-HT1F receptors.
Guinea pigs were anesthetized with pentobarbitone sodium (60 mg kg^-1, i.p.). Animals were placed in a stereotaxic frame (DKI 900, David Kopf Instruments, Tujunga, CA, U.S.A.). The right femoral vein was exposed and [^125I]-BSA ([…]) was injected as a bolus. With the incisor bar set at -1.5 mm from the horizontal line, the calvarium was exposed by a midline incision. Symmetrical burr holes (2 mm in diameter) were drilled at 3.7 mm posterior to the bregma and 3.2 mm lateral to the sagittal suture. Bipolar electrodes (50 mm shaft, Rhodes Medical Instruments, Woodland Hills, CA, U.S.A.) were lowered into the trigeminal ganglia to a depth of 9.5 mm from the dura mater overlying the dorsal surface of the brain. […] Radioactivity was determined on two sides with a gamma counter (Micromedic 4/600, Micromedic Systems, Inc., Huntsville, AL, U.S.A.) as previously described (Markowitz, et al., 1987 and Lee, et al., 1993).

CNS(=O)(=O)Cc1ccc2[nH]cc(CCN(C)C)c2c1 [sumatriptan]
ID50: 3.3 to 7 nM/kg
